Laboratory results as given in publication PMC8786932, “Bicyclic azetidines target acute and chronic stages of Toxoplasma gondii by inhibiting parasite phenylalanyl t-RNA synthetase” (Nature Communications, 2022).
pEC50, pIC50: −log10 of the molar value. Where “and” joins values, the source holds several entries; their conditions need not be identical. Identical values can stand only once. Like-named read-outs stand apart in the source and are kept apart here.

Tests used:
[1] = system: N. caninum expressing lacZ; assay: Neospora caninum β-galactosidase assay; format: cell-based; settings: Neospora caninum
Description: β-galactosidase assays were conducted using tissue culture grade 96-well plates (TPP) containing confluent monolayers of HFF cells. A 10-point compound dilution series (2-fold) for each compound was generated as described above (2X concentration, 0.1% final DMSO). Growth of the N. caninum strain expressing lacZ was monitoring using a β-galactosidase (β-gal) assay as described in[21] with the following modifications. N. caninum lacZ expressing parasites (1 × 10^3) were added (in 100 μL volume) into 96-well plates containing HFF monolayers to reach final compound concentration (5.0 μM to 0.002 μM in 200 μL total volume). Plates were incubated at 37 °C, 5% CO2 for 72 h prior to completing β-gal assay as previously described[23],[27],[51]. Briefly, parasite containing monolayers were lysed with 1.0% Triton X-100 and β-gal activity determined by adding 1 mM chlorophenolred-β-D-galactopyranoside followed by monitoring absorption at 570 nm on a Cytation 3 multi-mode imager (BioTek), as described.

[2] = target: T1, recombinant wild-type TgPheRS (Toxoplasma gondii, UniProt A0A125YPN6); assay: Malachite green aminoacylation enzyme assay, wild-type TgPheRS; format: biochemical; settings: for Tg PheRS enzyme assay raw signal: replicates
T1 sequence (A0A125YPN6 1-525): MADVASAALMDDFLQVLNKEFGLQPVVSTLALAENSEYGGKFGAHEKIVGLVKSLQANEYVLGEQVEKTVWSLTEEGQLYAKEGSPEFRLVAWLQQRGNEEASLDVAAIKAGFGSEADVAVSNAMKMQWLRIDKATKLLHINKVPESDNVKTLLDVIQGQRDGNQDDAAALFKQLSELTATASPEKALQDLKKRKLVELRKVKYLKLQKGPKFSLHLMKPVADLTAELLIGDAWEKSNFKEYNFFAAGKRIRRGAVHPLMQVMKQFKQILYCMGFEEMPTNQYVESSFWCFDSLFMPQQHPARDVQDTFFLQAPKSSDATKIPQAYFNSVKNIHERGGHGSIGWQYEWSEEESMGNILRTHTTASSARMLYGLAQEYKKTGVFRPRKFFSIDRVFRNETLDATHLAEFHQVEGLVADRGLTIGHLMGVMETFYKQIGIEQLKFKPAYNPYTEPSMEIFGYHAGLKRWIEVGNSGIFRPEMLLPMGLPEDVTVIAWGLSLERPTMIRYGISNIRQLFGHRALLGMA
T1 sequence (S8EZ50 1-675 partner): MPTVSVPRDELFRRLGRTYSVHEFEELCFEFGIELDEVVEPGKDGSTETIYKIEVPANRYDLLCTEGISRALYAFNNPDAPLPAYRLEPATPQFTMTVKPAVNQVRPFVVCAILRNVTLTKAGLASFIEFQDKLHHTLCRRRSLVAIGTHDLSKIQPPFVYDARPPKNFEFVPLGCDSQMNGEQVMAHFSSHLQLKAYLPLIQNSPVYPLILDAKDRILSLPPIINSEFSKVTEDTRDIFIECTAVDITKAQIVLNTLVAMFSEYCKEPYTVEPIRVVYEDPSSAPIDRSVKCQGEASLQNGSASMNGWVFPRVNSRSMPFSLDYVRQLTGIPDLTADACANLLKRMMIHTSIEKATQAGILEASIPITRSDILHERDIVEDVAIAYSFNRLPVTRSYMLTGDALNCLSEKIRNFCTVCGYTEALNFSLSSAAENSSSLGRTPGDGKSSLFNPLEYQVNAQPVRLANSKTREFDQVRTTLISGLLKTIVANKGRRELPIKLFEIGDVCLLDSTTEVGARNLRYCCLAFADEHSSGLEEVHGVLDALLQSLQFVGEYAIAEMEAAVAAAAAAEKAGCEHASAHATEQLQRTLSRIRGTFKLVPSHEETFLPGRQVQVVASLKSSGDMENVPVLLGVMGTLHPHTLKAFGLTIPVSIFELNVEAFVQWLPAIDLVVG

TgPheRS[L497I] = target: T2, TgPheRS[L497I] (Toxoplasma gondii, UniProt A0A125YPN6, L497I); assay: Enzyme assay, TgPheRS L497I; format: biochemical; settings: for enzyme assay readout (raw): L497I
T2 sequence (A0A125YPN6 1-525 L497I): T1 sequence (A0A125YPN6 1-525)
T2 sequence (S8EZ50 1-675 partner): T1 sequence (S8EZ50 1-675 partner)

[3] = system: T. gondii ME49-FLuc chronic infection; format: in vivo, Ifngr1-/- mice; settings: for Days (survival time of single mouse) / Survival event flag of single mouse (1 or 0): Fig 6C
Description: (§1) Ifngr1^−/− (B6.129S7-Ifngr1 ^tm1Agt /J) and CBA/J mice were purchased from Jackson Laboratory and bred locally at Washington University. Animal studies were conducted according to the U.S. Public Health Service policy on human care and use of laboratory animals. Animals were maintained in facilities approved by the Association for Assessment and Accreditation of Laboratory Animal Care. Studies were approved by Division of Comparative Medicine, Washington University. […] Animals were maintained on a 12:12 light cycle, room temperature maintained at 70℉ ± 2℉, and room humidity maintained at 50% ± 20%.
(§2) Testing of compounds to prevent reactivation of chronic infection was […] to test the efficacy of PheRS inhibitors against chronic infection. In both cases, male and female C57BL/6 Ifngr1^−/− mice were infected by oral gavage with 5 cysts of the ME49-Fluc strain isolated from chronically infected CBA/J mice. […] Animals were monitored for survival and weight loss for 30 days post-treatment.

[4] = system: T. gondii ME49-FLuc tissue cysts; format: in vivo, Ifngr1-/- mice
Description: as §1, §2

[5] = 30 mg/kg oral vs 10 mg/kg
C. parvum = settings: Fig 2A Tg_Pf_Cp EC50s; previously reported values, reference not visible in the shown part; cited from earlier work

## COc1ccc(NC(=O)N2CCCCN3[C@H](CN(C)C)[C@H](c4ccc(C#Cc5ccccc5)cc4)[C@@H]3C2)cc1 [BRD7929]
[1]; Table S3, 72 h, lacZ, read-out: N. caninum EC50
  pEC50: 7.38
[1]; read-out: N. caninum (EC50, Fig S2 source data)
  pEC50: 7.37
[2]
  pIC50: 7.51
[2]; BRD7929 0.000001 μM
  Tg PheRS enzyme assay raw signal: 0.2010 (2×) and 0.1986
[2]; BRD7929 0.000010 μM
  Tg PheRS enzyme assay raw signal: 0.1950 and 0.1940 and 0.1990
[2]; BRD7929 0.000100 μM
  Tg PheRS enzyme assay raw signal: 0.1980 and 0.1900 and 0.1990
[2]; BRD7929 0.001000 μM
  Tg PheRS enzyme assay raw signal: 0.1940 and 0.1790 and 0.1870
[2]; BRD7929 0.010000 μM
  Tg PheRS enzyme assay raw signal: 0.1697 and 0.1750 and 0.1724
[2]; BRD7929 0.100000 μM
  Tg PheRS enzyme assay raw signal: 0.1290 and 0.1332 and 0.1400
[2]; BRD7929 1.000000 μM
  Tg PheRS enzyme assay raw signal: 0.1100 and 0.1180 and 0.1090
[2]; BRD7929 10.000000 μM
  Tg PheRS enzyme assay raw signal: 0.0928 and 0.1144 and 0.1108
[2]; BRD7929 100.000000 μM
  Tg PheRS enzyme assay raw signal: 0.1051 and 0.0940 and 0.1066
[2]; WT, BRD7929 100.000000 μM
  enzyme assay readout (raw, malachite green, 620 nm): 0.1051 and 0.0940 and 0.1066
TgPheRS[L497I]; 0.000005 μM
  enzyme assay readout (raw): 0.3299 and 0.3217 and 0.3007
TgPheRS[L497I]; 0.000050 μM
  enzyme assay readout (raw): 0.3157 and 0.3171 and 0.3115
TgPheRS[L497I]; 0.000500 μM
  enzyme assay readout (raw): 0.3154 and 0.3074 and 0.3183
TgPheRS[L497I]; 0.005000 μM
  enzyme assay readout (raw): 0.2831 and 0.3060 and 0.3128
TgPheRS[L497I]; 0.050000 μM
  enzyme assay readout (raw): 0.3012 and 0.2839 and 0.2985
TgPheRS[L497I]; 0.500000 μM
  enzyme assay readout (raw): 0.2641 and 0.2615 and 0.2741
TgPheRS[L497I]; 5.000000 μM
  enzyme assay readout (raw): 0.2401 and 0.2141 and 0.2271
TgPheRS[L497I]; 50.000000 μM
  enzyme assay readout (raw): 0.1719 and 0.1728 and 0.1711
TgPheRS[L497I]; Table S4, L497I, read-out: IC50 (enzyme inhibition)
  pIC50: 5.88
[3]; 10 mg/kg p.o. QD, 16 days
  onset of death, reactivation model: delayed onset of death
[3]; 10 mg/kg p.o. once a day, 16 days, P = 0.0003, Mantel-Cox
  survival vs vehicle, reactivation model: survived significantly longer
[3]; 10 mg/kg, c3: 1 = death, 0 = survivor
  Days (survival of individual mice): 10 days and 12 days and 24 days and 20 days and 30 days and 23 days and 22 days
[3]; 10d-10 mg / kg
  Days (survival time of single mouse): 13 days and 29 days and 14 days and 17 days and 19 days and 16 days
  Survival event flag of single mouse (1 or 0): 1 and 0
[3]; 20d - 10 mg / kg, 10 mg/kg
  Days (survival time of single mouse): 29 days and 17 days and 15 days and 20 days and 19 days and 22 days
  Survival event flag of single mouse (1 or 0): 0 and 1
[4]; 10 mg/kg p.o. 20 days, P = 0.0487, Mantel-Cox
  survival vs sulfadiazine, oral challenge model: survived significantly longer than sulfadiazine mice
[4]; 10 mg/kg p.o. QD for 10 days from 48 h post-challenge
  mean survival: 16.5 days
[4]; 10 mg/kg p.o. QD for 20 days from 48 h post-challenge
  mean survival: 21 days
[4]; 10 mg/kg p.o. QD, 20 days
  mice in which death was prevented: 3 of 8
[4]; 10 day and 20 day cohorts together
  animals cured by treatment, overall: 4 of 16
[5]
  plasma levels at increased dose: did not lead to a proportional increase in plasma levels

## COc1ccc(NC(=O)N2CCCCN3[C@H](CO)[C@H](c4ccc(C#Cc5ccccc5)cc4)[C@@H]3C2)cc1 [BRD3444]
C. parvum
  pEC50: 7.82
